These results are taken from patent US6894061B2, “Substituted dihydrophenanthridinesulfonamides” (Wyeth, priority 2002, dated 2005).

Where two headings read alike, the source gives them in different places.

As a reminder, the melting point is the temperature of the solid-liquid transition. Usually EC50 stands for the concentration at which the effect is half-maximal.

One data set concerns creatine kinase. Briefly: Creatine kinase (CK) test procedure in Ad5-wt-ERα infected HAECT-1 cells. The data set is classed as cell-based, human. The settings on record: Ad5-wt-ERα infected HAECT-1 cells; for Emax at 10 µM / Creatin Kinase Efficacy (%): @10 μM. The method, then: (§1) After four hours, cells were washed with EBM-BSA and incubated overnight in the same medium. Following overnight incubation, cells were washed with EBM-BSA and infected for 2 hours with 6 mL of a 1:10 dilution of Ad5-3x(NFκB).Luc virus (Adenovirus luciferase expression vector driven by 3 repeats of the MHC NFκb site 5′ to the thymidine kinase promoter) in EBM-BSA. After two hours, cells were washed and incubated at 34° C. for 1 hour. […] Control (no ER infection) cells were processed as above without Ad5-wt-hERα virus infection.
(§2) ERα infected HAECT-1 cells or control cells were thawed, diluted 42× in warm EBM-BSA, plated into 96-well plates at 0.1 mL/well and incubated for 4 hours at 34° C. Test compounds were added to the cells as 2× stocks in EBM-BSA containing 2 ng/mL IL-1β (R&D Systems) and the 96-well plates were returned to the incubator (34° C.). After 15-20 hours, 100 μL aliquots of media were removed from the cells and assayed for IL-6 content using a BioSource human IL-6 ELISA Kit. Cells were subsequently washed with 300 μL of Dulbecco's phosphate buffered saline and lysed in 50 μL of Cell Culture Lysis Reagent (Promega). Luciferase was determined on a Wallac Victor^2 Luminometer (Gaithersburg, Md.) using 10 μL of lysate and mixing with 100 μL of Promega Luciferase Assay reagent. Creatine kinase was determined from the rate of increase in A340 following addition of 100 μL of CK assay reagent (Sigma, cat. No 47-10) to the remainder of the cell lysate.
(§3) For IC50 and EC50 calculations, mean IL-6, luciferase or CK values versus log10 of the compound concentration were fitted to a four parameter logistic equation. The IC50/EC50 value, ‘Hill slope’, upper and lower limits of the curve were iteratively estimated.

The test system of another data set is ER/NF-κB. Briefly: ER/NF-κB luciferase reporter in Ad5-wt-ERα infected HAECT-1 cells. It is filed as cell-based, human. Particulars: for Emax: read-out: ER/NFκB Efficacy (%)*; for IC50: read-out: ER/NFκB IC50. The method, then:
as §1, §2, §3
In general terms: In a reporter assay the amount or activity of a reporter protein is the signal.

Where [1] appears, read: Homo sapiens, HAECT1, read-out: Creatin Kinase Efficacy (%).

For `CCC1c2ccccc2-c2ccccc2N1S(=O)(=O)c1ccc(O)cc1` (stereo not shown) [Example 18, 4-[(6-Ethylphenanthridin-5(6H)-yl)sulfonyl]phenol], the Emax at 10 µM in the data set with creatine kinase (setting [1]) is under 35%. In addition, in the data set with ER/NF-κB (Homo sapiens, HAECT1, IL-1β), the Emax amounted to 76% and the IC50 was 0.529 µM.

On to `CCC1c2ccccc2-c2cc(Br)ccc2N1S(=O)(=O)c1ccc(O)cc1` (stereo not shown) [Example 19, 4-[(2-Bromo-6-ethylphenanthridin-5(6H)-yl)sulfonyl]phenol], for which the Emax at 10 µM in the data set with creatine kinase (setting [1]) was under 35%. In the data set on ER/NF-κB (Homo sapiens, HAECT1, IL-1β), the Emax was found to be 80% and the IC50 came to 0.186 µM.

Regarding `CCC1c2ccccc2-c2ccccc2N1S(=O)(=O)c1ccc(O)c(C)c1` (stereo not shown) [Example 20, 4-[(6-Ethylphenanthridin-5(6H)-yl)sulfonyl]-2-methylphenol], the Emax at 10 µM in the data set on creatine kinase (setting [1]) was under 35%. Moreover, the IC50 in the data set on ER/NF-κB (Homo sapiens, HAECT1, IL-1β) was over 10 µM.

Regarding `CCC1c2ccccc2-c2cc(Br)ccc2N1S(=O)(=O)c1ccc(O)c(C)c1` (stereo not shown) [Example 21, 4-[(2-Bromo-6-ethylphenanthridin-5(6H)-yl)sulfonyl]-2-methylphenol], the Emax at 10 µM with creatine kinase (setting [1]) was under 35%. In the data set on ER/NF-κB (Homo sapiens, HAECT1, IL-1β), the Emax was 85% and the IC50 was 0.831 µM.

Turning to `CC1c2ccccc2-c2ccccc2N1S(=O)(=O)c1ccc(O)c(C(=O)O)c1` (stereo not shown) [Example 24, 2-Hydroxy-5-[(6-methylphenanthridin-5(6H)-yl)sulfonyl]benzoic acid], the melting point fell in the range of 225 to 230 °C.

As to `CC1c2ccccc2-c2ccccc2N1S(=O)(=O)c1ccc(O)c(C=O)c1` (stereo not shown) [Example 27, 2-Hydroxy-5-[(6-methylphenanthridin-5(6H)-yl)sulfonyl]b nzald hyde], the “Creatin Kinase Efficacy (%)” value in the data set on creatine kinase is given as under 35% @10 μM. Further, in the data set on ER/NF-κB (IL-1β), the IC50 was over 10 µM.

Take `CCC1c2ccccc2-c2cc(-c3ccsc3)ccc2N1S(=O)(=O)c1ccc(O)cc1` (stereo not shown) [Example 28, 4-[(6-Ethyl-2-thin-3-ylphnanthridin-5(6H)-yl)sulfonyl]phenol]: the “Creatin Kinase Efficacy (%)” value in the data set with creatine kinase was under 35% @10 μM. For the same compound, in the data set with ER/NF-κB (IL-1β), the “ER/NFκB Efficacy (%)*” value is given as 98% and the IC50 was 0.076 µM.

For the compound `CCC1c2ccccc2-c2cc(-c3cccc(OC)c3)ccc2N1S(=O)(=O)c1ccc(O)cc1` (stereo not shown) [Example 29, 4-{[6-Ethyl-2-(3-methoxyphenyl)phenanthridin-5(6H)-yl]sulfonyl}phenol], the Emax at 10 µM in the data set with creatine kinase (setting [1]) was under 35%. Moreover, in the data set with ER/NF-κB (Homo sapiens, HAECT1, IL-1β), the Emax turned out to be 86% and the IC50 was determined as 0.234 µM.

Regarding `CC1c2c(O)cccc2-c2ccccc2N1S(=O)(=O)c1ccc(O)cc1` (stereo not shown) [Example 39, 5-[(4-Hydroxyphenyl)sulfonyl]-6-methyl-5,6-dihydrophenanthridin-7-ol], in the data set with creatine kinase (setting [1]), the Emax at 10 µM is under 35%. The IC50 with ER/NF-κB (Homo sapiens, HAECT1, IL-1β) was over 10 µM.

As for `CCC1c2cc(F)ccc2-c2cc(-c3ccsc3)ccc2N1S(=O)(=O)c1ccc(O)cc1` (stereo not shown) [Example 52, 4-[(6-Ethyl-8-fluoro-2-thien-3-ylphenanthridin-5(6H)-yl)sulfonyl]phenol], the Emax at 10 µM with creatine kinase (setting [1]) was under 35%. For the same compound, in the data set with ER/NF-κB (Homo sapiens, HAECT1, IL-1β), the Emax is 95% and the IC50 was 0.068 µM.

`CCC1c2cc(F)ccc2-c2ccccc2N1S(=O)(=O)c1ccc(OC(=O)c2ccccc2)cc1` (stereo not shown) [Example 55, 4-[(6-Ethyl-8-fluorophenanthridin-5(6H)-yl)sulfonyl]phenyl benzoate]: the EC50 with creatine kinase (Homo sapiens, HAECT1, read-out: Creatin Kinase EC50) turned out to be 0.239 µM. Further, in the data set on creatine kinase (setting [1]), the Emax worked out at 32%. The IC50 with ER/NF-κB (Homo sapiens, HAECT1, IL-1β) was over 10 µM.

Regarding `CCC1c2ccccc2-c2cc(-c3ccccc3O)ccc2N1S(=O)(=O)c1ccc(O)cc1` (stereo not shown) [Example 63, 2-{6-Ethyl-5-[(4-hydroxyphnyl)sulfonyl]-5,6-dihydrphnanthridin-2-yl}ph nol], the “Creatin Kinase Efficacy (%)” value in the data set on creatine kinase is listed as under 35% @10 μM. Besides, in the data set with ER/NF-κB (IL-1β), the “ER/NFκB Efficacy (%)*” value was 89% and the IC50 stood at 0.335 µM.

Consider `CCC1c2ccccc2-c2cc(/C=C/c3ccccc3)ccc2N1S(=O)(=O)c1ccc(O)cc1` (stereo not shown) [Example 65, 4-{[6-Ethyl-2-[(E)-2-phenylethenyl]phenanthridin-5(6H)-yl]sulfonyl}phenol], for which the Emax at 10 µM in the data set with creatine kinase (setting [1]) is under 35%. Further, in the data set on ER/NF-κB (Homo sapiens, HAECT1, IL-1β), the Emax was 93% and the IC50 came to 0.241 µM.

Turning to `CCC1c2ccccc2-c2cc(-c3cccc(Cl)c3)ccc2N1S(=O)(=O)c1ccc(O)cc1` (stereo not shown) [Example 67, 4-{[2-(3-Chlorophenyl)-6-ethylphenanthridin-5(6H)-yl]sulfonyl}phenol], the Emax at 10 µM in the data set on creatine kinase (setting [1]) was under 35%. Moreover, in the data set on ER/NF-κB (Homo sapiens, HAECT1, IL-1β), the Emax is 79% and the IC50 turned out to be 0.245 µM.

With `CCC1c2ccccc2-c2cc(-c3ccccc3)ccc2N1S(=O)(=O)c1ccc(O)cc1` (stereo not shown) [Example 69, 4-[(6-Ethyl-2-phnylphenanthridin-5(6H)-yl)sulfonyl]phenol], in the data set with creatine kinase, the “Creatin Kinase Efficacy (%)” value was under 35% @10 μM. In addition, in the data set with ER/NF-κB (IL-1β), the “ER/NFκB Efficacy (%)*” value turned out to be 90% and the IC50 amounted to 0.235 µM.

Consider `CCC1c2ccccc2-c2cc(-c3ccccc3C)ccc2N1S(=O)(=O)c1ccc(O)cc1` (stereo not shown) [Example 70, 4-{[6-Ethyl-2-(2-mthylphnyl)phenanthridin-5(6H)-yl]sulfonyl}phenol], for which, in the data set on creatine kinase, the “Creatin Kinase Efficacy (%)” value is on record as under 35% @10 μM. Also, in the data set on ER/NF-κB (IL-1β), the “ER/NFκB Efficacy (%)*” value was found to be 90% and the IC50 came to 0.463 µM.

In the case of `CCC1c2ccccc2-c2cc(-c3ccc(O)cc3)ccc2N1S(=O)(=O)c1ccc(O)cc1` (stereo not shown) [Example 73, 4-{[6-Ethyl-2-(4-hydroxyphenyl)phenanthridin-5(6H)-yl]sulfonyl}phenol], the Emax at 10 µM in the data set with creatine kinase (setting [1]) was under 35%. Also, in the data set on ER/NF-κB (Homo sapiens, HAECT1, IL-1β), the Emax is 56% and the IC50 stood at 0.052 µM.

With `CCC1c2ccccc2-c2cc(-c3ccccc3Cl)ccc2N1S(=O)(=O)c1ccc(O)cc1` (stereo not shown) [Example 74, 4-{[2-(2-Chlorophenyl)-6-ethylphenanthridin-5(6H)-yl]sulfonyl}phenol], the Emax at 10 µM in the data set on creatine kinase (setting [1]) is under 35%. In the data set on ER/NF-κB (Homo sapiens, HAECT1, IL-1β), the Emax was 96% and the IC50 stood at 0.434 µM.

On to `CCc1ccc(-c2ccc3c(c2)-c2ccccc2C(CC)N3S(=O)(=O)c2ccc(O)cc2)cc1` (stereo not shown) [Example 75, 4-{[6-Ethyl-2-(4-ethylphenyl)phenanthridin-5(6H)-yl]sulfonyl}phenol], for which, in the data set on creatine kinase (setting [1]), the Emax at 10 µM is under 35%. Besides, in the data set on ER/NF-κB (Homo sapiens, HAECT1, IL-1β), the Emax came out at 116% and the IC50 was 3.93 µM.

As to `CCC1c2ccccc2-c2cc(-c3ccc(C(C)=O)s3)ccc2N1S(=O)(=O)c1ccc(O)cc1` (stereo not shown) [Example 76, 1-(5-{6-Ethyl-5-[(4-hydroxyphnyl)sulfonyl]-5,6-dihydrophnanthridin-2-yl}thin-2-yl)ethanone], the “Creatin Kinase Efficacy (%)” value in the data set on creatine kinase was under 35% @10 μM. In the data set on ER/NF-κB (IL-1β), the “ER/NFκB Efficacy (%)*” value is listed as 67% and the IC50 amounted to 1.18 µM.

`CCC1c2ccccc2-c2cc(-c3ccccc3O)ccc2N1S(=O)(=O)c1ccc(O)c(C)c1` (stereo not shown) [Example 78, 4-{[6-Ethyl-2-(2-hydroxyphenyl)phenanthridin-5(6H)-yl]sulfonyl}-2-methylphenol]: the Emax at 10 µM with creatine kinase (setting [1]) was under 35%. In the data set with ER/NF-κB (Homo sapiens, HAECT1, IL-1β), the Emax was 79% and the IC50 was found to be 0.771 µM.

`CCC1c2ccccc2-c2cc(-c3ccsc3)ccc2N1S(=O)(=O)c1ccc(O)c(C)c1` (stereo not shown) [Example 79, 4-[(6-Ethyl-2-thien-3-ylphenanthridin-5(6H)-yl)sulfonyl]-2-methylphenol]: the Emax at 10 µM with creatine kinase (setting [1]) is under 35%. Also, in the data set on ER/NF-κB (Homo sapiens, HAECT1, IL-1β), the Emax came to 86% and the IC50 came to 0.226 µM.

As to `CCC1c2ccccc2-c2cc(-c3cccc(O)c3)ccc2N1S(=O)(=O)c1ccc(O)c(C)c1` (stereo not shown) [Example 84, 4-{[6-Ethyl-2-(3-hydroxyphenyl)phenanthridin-5(6H)-yl]sulfonyl}-2-methylphenol], in the data set with creatine kinase (setting [1]), the Emax at 10 µM was under 35%. Besides, in the data set with ER/NF-κB (Homo sapiens, HAECT1, IL-1β), the Emax was 80% and the IC50 came out at 0.447 µM.

As to `CCC1c2ccccc2-c2cc(-c3cc4ccccc4s3)ccc2N1S(=O)(=O)c1ccc(O)c(C)c1` (stereo not shown) [Example 90, 4-{[2-(1-Benzothien-2-yl)-6-ethylphenanthridin-5(6H)-yl]sulfonyl}-2-methylphenol], the Emax at 10 µM in the data set on creatine kinase (setting [1]) is under 35%. Besides, in the data set with ER/NF-κB (Homo sapiens, HAECT1, IL-1β), the Emax worked out at 108% and the IC50 stood at 2.55 µM.

Regarding `CCC1c2ccccc2-c2cc(-c3ccc(O)cc3)ccc2N1S(=O)(=O)c1ccc(O)c(C)c1` (stereo not shown) [Example 94, 4-{[6-Ethyl-2-(4-hydroxyphnyl)phenanthridin-5(6H)-yl]sulfnyl}-2-methylph nl], in the data set with creatine kinase, the “Creatin Kinase Efficacy (%)” value is recorded as under 35% @10 μM. In the data set with ER/NF-κB (IL-1β), the “ER/NFκB Efficacy (%)*” value came to 105% and the IC50 turned out to be 0.382 µM.

With `CCC1c2ccccc2-c2cc(-c3ccccc3Cl)ccc2N1S(=O)(=O)c1ccc(O)c(C)c1` (stereo not shown) [Example 95, 4-{[2-(2-Chlorophenyl)-6-ethylphenanthridin-5(6H)-yl]sulfonyl}-2-methylphenol], the Emax at 10 µM with creatine kinase (setting [1]) was under 35%. In addition, in the data set with ER/NF-κB (Homo sapiens, HAECT1, IL-1β), the Emax came to 89% and the IC50 stood at 0.678 µM.
